Assay [1] relates to Onchocerca gutturosa adult male worms. The experiment in a line: Onchocerca gutturosa in vitro screening model: adult worm motility score and MTT/formazan viability. The assay is classed as cell-based. The settings on record: read-out: O. gutt Activity class.
Another assay relates to Dirofilaria immitis. The experiment in a line: Heartworm screen Dirofilaria immitis (stage DiMF/DiL4 not specified in the tables). The settings on record: read-out: D. immitis Activity class. The format is cell-based.

In the case of `COc1nccc(S(=O)(=O)Nc2cccc3cccnc23)n1` [Compound 197, 2-methoxy-N-(quinolin-8-yl)pyrimidine-4-sulfonamide], the figures for the IC50 (in assay [1]; with Dirofilaria immitis) were 200 to 500 nM and 500 to 5000 nM, respectively.
For `Cc1ccc(S(=O)(=O)Nc2ccc(F)c3cccnc23)nc1` [Compound 126, N-(5-fluoro-quinolin-8-yl)-5-methylpyr-idine-2-sulfon-amide] the same measures were 500 to 5000 nM and 200 to 500 nM.
In the same order, the values of `O=S(=O)(Nc1cccc2cccnc12)c1ccc(-c2ccccc2)nc1` [Compound 189, 6-phenyl-N-(quinolin-8-yl)pyridine-3-sulfonamide] are 200 to 500 nM and 500 to 5000 nM.
For the compound `O=S(=O)(Nc1cccc2cccnc12)c1ncccc1Cl` [Compound 215, 3-chloro-N-(quinolin-8-yl)pyridine-2-sulfonamide], the IC50 in assay [1] was less than 200 nM; in the assay with Dirofilaria immitis, 500 to 5000 nM.
On to `CCn1ccnc1S(=O)(=O)Nc1cc(F)cc2cccnc12` [Compound 107, 1-ethyl-N-(6-fluoroquinolin-8-yl)-1H-imidazole-2-sulfonamide], for which the results for the IC50 (in assay [1]; in the assay with Dirofilaria immitis) were less than 200 nM and 200 to 500 nM, respectively.
For `CCn1ccnc1S(=O)(=O)Nc1ccc(F)c2cccnc12` [Compound 108, 1-ethyl-N-(5-fluoroquinolin-8-yl)-1H-imidazole-2-sulfonamide] the same measures were 500 to 5000 nM and less than 200 nM.
For `CC(C)c1cccnc1S(=O)(=O)Nc1cccc2cccnc12` [Compound 211, 3-isopropyl-N-(quinolin-8-yl)pyridine-2-sulfonamide] the same measures were less than 200 nM and 500 to 5000 nM.
`Cc1cccnc1S(=O)(=O)Nc1cccc2ccc(C3CC3)nc12` [Compound 26, N-(2-cyclo-propylquin-olin-8-yl)-3-methylpyr-idine-2-sulfonamide]: the IC50 (in assay [1]; with Dirofilaria immitis) was 500 to 5000 nM each time.
With `N#CCc1cccc(S(=O)(=O)Nc2cccc3cccnc23)n1` [Compound 150, 6-(cyanomethyl)-N-(quinolin-8-yl)pyridine-2-sulfonamide], the IC50 in assay [1] was 200 to 500 nM; in the assay on Dirofilaria immitis, 500 to 5000 nM.
In the same order, the values of `Cc1nc(Cl)ccc1S(=O)(=O)Nc1cccc2cccnc12` [Compound 179, 6-chloro-2-methyl-N-(quinolin-8-yl)pyridine-3-sulfonamide] are less than 200 nM and 500 to 5000 nM.
In the same order, the values of `Cc1cccc(S(=O)(=O)Nc2cccc3cccnc23)n1` [Compound 272, 6-methyl-N-(quinolin-8-yl)pyridine-2-sulfonamide] are less than 200 nM and 500 to 5000 nM.
For `O=S(=O)(Nc1cccc2cccnc12)c1cnccn1` [Compound 271, N-(quinolin-8-yl)pyrazine-2-sulfonamide] the same measures were less than 200 nM and 500 to 5000 nM.
With `Cc1cccnc1S(=O)(=O)Nc1cccc2cc(N3CCOCC3)cnc12` [Compound 21, 3-methyl-N-(3-morpho-linoquinolin-8-yl)pyridine-2-sulfonamide], the IC50 in assay [1] was less than 200 nM; in the assay on Dirofilaria immitis it was 500 to 5000 nM.
For `COc1ccc(NS(=O)(=O)c2ccc(C)cn2)c2ncccc12` [Compound 123, N-(5-methoxy-quinolin-8-yl)-5-methylpyr-idine-2-sulfon-amide] the same measures were less than 200 nM and 500 to 5000 nM.
In the same order, the values of `Cc1ccc(S(=O)(=O)Nc2ccc(C)c3cccnc23)nc1` [Compound 58, 5-methyl-N-(5-methyl-quinolin-8-yl)pyridine-2-sulfonamide] are 200 to 500 nM and 500 to 5000 nM.
For `Cc1ccc(S(=O)(=O)Nc2cccc3cccnc23)c(Cl)n1` [Compound 188, 2-chloro-6-methyl-N-(quinolin-8-yl)pyridine-3-sulfonamide] the same measures were less than 200 nM and 500 to 5000 nM.
`O=S(=O)(Nc1cccc2cccnc12)c1ccc(-c2ccc(F)cc2)nc1` [Compound 182, 6-(4-fluorophenyl)-N-(quinolin-8-yl)pyridine-3-sulfonamide]: the IC50 in assay [1] is less than 200 nM; with Dirofilaria immitis, 500 to 5000 nM.
For `O=S(=O)(Nc1cccc2cccnc12)c1cc2ccccc2cn1` [Compound 270, N-(quinolin-8-yl)isoquinoline-3-sulfonamide] the same measures were less than 200 nM and 200 to 500 nM.
In the same order, the values of `Cc1nccnc1S(=O)(=O)Nc1ccc(N2CCOCC2)c2cccnc12` [Compound 75, 3-methyl-N-(5-morpho-linoquinolin-8-yl)pyrazine-2-sulfonamide] are less than 200 nM and 500 to 5000 nM.
For `CCn1ccnc1S(=O)(=O)Nc1cccc2cc(Cl)cnc12` [Compound 116, N-(3-chloro-quinolin-8-yl)-1-ethyl-1H-imidazole-2-sulfonamide] the same measures were 200 to 500 nM and 200 to 500 nM.
As for `O=S(=O)(Nc1cccc2cccnc12)c1ccccn1` [Compound 280, N-(quinolin-8-yl)pyridine-2-sulfonamide], the IC50 in assay [1] lay within 500 to 5000 nM; in the assay on Dirofilaria immitis, 200 to 500 nM.
For `Cc1ccc(S(=O)(=O)Nc2cccc3cc(Cl)cnc23)nc1` [Compound 120, N-(3-chloro-quinolin-8-yl)-5-methylpyr-idine-2-sulfon-amide] the same measures were 200 to 500 nM and 200 to 500 nM.
For `COc1cnc2c(NS(=O)(=O)c3ccc(C)cn3)cccc2c1` [Compound 121, N-(3-methoxy-quinolin-8-yl)-5-methylpyr-idine-2-sulfon-amide] the same measures were less than 200 nM and 500 to 5000 nM.
For `CN(C)c1cccnc1S(=O)(=O)Nc1cccc2cccnc12` [Compound 208, 3-(dimethylamino)-N-(quinolin-8-yl)pyridine-2-sulfonamide] the same measures were less than 200 nM and 500 to 5000 nM.
With `CN(C)c1cccnc1S(=O)(=O)Nc1cccc2c1NCCC2` [Compound 45, 3-(dimethyl-amino)-N-(1,2,3,4-tetra-hydroquin-olin-8-yl)-pyridine-2-sulfonamide], the IC50 (in assay [1]; in the assay with Dirofilaria immitis) was 500 to 5000 nM throughout.
As to `COc1ccnc(S(=O)(=O)Nc2cccc3cccnc23)c1` [Compound 222, 4-methoxy-N-(quinolin-8-yl)pyridine-2-sulfonamide], the IC50 in assay [1] is less than 200 nM; in the assay with Dirofilaria immitis it was 200 to 500 nM.
For `O=S(=O)(Nc1cccc2cccnc12)c1ccnc(C2CC2)c1` [Compound 152] the same measures were less than 200 nM and 500 to 5000 nM.
In the same order, the values of `O=S(=O)(Nc1cccc2cccnc12)c1cc(F)ccn1` [Compound 160, 4-fluoro-N-(quinolin-8-yl)pyridine-2-sulfonamide] are less than 200 nM and 500 to 5000 nM.
In the same order, the values of `CCn1ccnc1S(=O)(=O)Nc1ccc(C)c2cccnc12` [Compound 83, 1-ethyl-N-(5-methylquin-olin-8-yl)-1H-imidazole-2-sulfonamide] are less than 200 nM and 200 to 500 nM.
For the compound `Cc1cccnc1S(=O)(=O)Nc1cccc2cc(C3CC3)cnc12` [Compound 29, N-(3-cyclo-propylquin-olin-8-yl)-3-methylpyr-idine-2-sulfonamide], the IC50 (in assay [1]; in the assay on Dirofilaria immitis) was 500 to 5000 nM throughout.
`Cc1cccnc1S(=O)(=O)Nc1c(OCC2CC2)ccc2cccnc12` [Compound 16, N-(7-(cyclo-propylmeth-oxy)quinolin-8-yl)-3-meth-ylpyridine-2-sulfonamide]: the values for the IC50 (in assay [1]; in the assay with Dirofilaria immitis) were 500 to 5000 nM and less than 200 nM, respectively.
In the same order, the values of `Cc1ccc(S(=O)(=O)Nc2cccc3nccnc23)nc1` [Compound 196, 5-methyl-N-(quinoxalin-5-yl)pyridine-2-sulfonamide] are 200 to 500 nM and 200 to 500 nM.
For `Cc1cccnc1S(=O)(=O)Nc1cccc2c(C3CC3)ccnc12` [Compound 27, N-(4-cyclo-propylquin-olin-8-yl)-3-methylpyr-idine-2-sulfonamide] the same measures were 500 to 5000 nM and 500 to 5000 nM.
For `Cc1ccc(S(=O)(=O)Nc2c(Cl)ccc3cccnc23)nc1` [Compound 114, N-(7-chloro-quinolin-8-yl)-5-methylpyr-idine-2-sulfon-amide] the same measures were less than 200 nM and 500 to 5000 nM.
With `Cc1cc(S(=O)(=O)Nc2cccc3cccnc23)ccn1` [Compound 154, 2-methyl-N-(quinolin-8-yl)pyridine-4-sulfonamide], the IC50 in assay [1] is 200 to 500 nM; in the assay with Dirofilaria immitis it was 500 to 5000 nM.
In the same order, the values of `Cc1ccc(S(=O)(=O)Nc2c(C)ccc3cccnc23)nc1` [Compound 112, 5-methyl-N-(7-methyl-quinolin-8-yl)-pyridine-2-sulfonamide] are 200 to 500 nM and 500 to 5000 nM.
For `C[C@@H](C1CC1)n1ccnc1S(=O)(=O)Nc1cccc2cccnc12` [Compound 185, (S)-1-(1-cyclopropyl-ethyl)-N-(quinolin-8-yl)-1H-imidazole-2-sulfonamide] the same measures were less than 200 nM and 200 to 500 nM.
For `O=S(=O)(Nc1cccc2cccnc12)c1ccc(Cl)nc1C(F)(F)F` [Compound 176, 6-chloro-N-(quinolin-8-yl)-2-(trifluoromethyl) pyridine-3-sulfonamide] the same measures were 200 to 500 nM and 500 to 5000 nM.
For `CC(C)Oc1ccnc(S(=O)(=O)Nc2cccc3cccnc23)c1` [Compound 245, 4-isopropoxy-N-(quinolin-8-yl)pyridine-2-sulfonamide], the values for the IC50 (in assay [1]; with Dirofilaria immitis) were less than 200 nM and 200 to 500 nM, respectively.
Take `CCn1ccnc1S(=O)(=O)Nc1cc(C)cc2cccnc12` [Compound 103, 1-ethyl-N-(6-methylquin-olin-8-yl)-1H-imidazole-2-sulfonamide]: the figures for the IC50 (in assay [1]; in the assay with Dirofilaria immitis) were 500 to 5000 nM and 200 to 500 nM, respectively.
Take `CCn1ccnc1S(=O)(=O)Nc1ccc(Cl)c2cccnc12` [Compound 110, N-(5-chloro-quinolin-8-yl)-1-ethyl-1H-imidazole-2-sulfonamide]: the IC50 (in assay [1]; with Dirofilaria immitis) was 200 to 500 nM throughout.
Turning to `Cc1ccc2cccc(NS(=O)(=O)c3ncccc3C)c2n1` [Compound 67, 3-methyl-N-(2-methyl-quinolin-8-yl)pyridine-2-sulfonamide], in the assay on Dirofilaria immitis, the IC50 fell in the range of 500 to 5000 nM.
